assay: recombinant UMI read abundance after kanamycin selection (control-corrected) (log10(CPM+1)); higher = more efficient recombination; extreme values may be limits of the assay; sequences stand for … in AGTGCAGAGAAAATCGGCCAGTTTTCTCTGCCTGCAGTCCGCATGCCGTGGGACCCCTTGGGTTCTAACCTGTTGCCTAGATTTATGCAGCGGACTGCCTTTCTCCCAAAGTGATAAACCGG…AGGTTGGTTTCACT; site = the 11-nt donor
How it was run: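 Values are reported as log10(CPM+1), obtained by converting sequencing counts to CPM, averaging replicates and scaling by control-derived factors. The counts came from recombinant UMIs amplified by PCR across the donor–target junction. These UMIs came from a pooled Escherichia coli screen of donor and donor-binding-loop pairs for the IS621 bridge recombinase, plated with IPTG (0.07 mM) plus kanamycin or left unselected, in two replicates each.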
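Further: IS621 bridge recombinase in Escherichia coli cells against a fixed T5 target plasmid.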

Row | Sequence | recombinant UMI read abundance (log10)
1 | GGTCGGCCATGGACCGGTTTTCCCGGTAATCCGTATTTGAA (site GGTCGGCCTTT) | 0
2 | GGTGAGCCATGGACCGGTTTTCCCGGTAATCCGTATTTGGG (site GGTGAGCCTCC) | 0.0257
3 | GGTGCATCATGGACCGGTTTTCCCGGTAATCCGTATTTGCT (site GGTGCATCTAG) | 1.92
4 | GGTGCCCCATGGACCGGTTTTCCCGGTAATCCGTATTTGAC (site GGTGCCCCTGT) | 0
5 | GGTGGAACATGGACCGGTTTTCCCGGTAATCCGTATTTGTT (site AGTGGAACTAA) | 0.371
6 | GGTGGAACATGGACCGGTTTTCCCGGTAATCCGTATTTGTT (site CGTGGAACTAA) | 0.00196
7 | GGTGGAACATGGACCGGTTTTCCCGGTAATCCGTATTTGTT (site GGTGGAACTAA) | 0.746
8 | GGTGGAACATGGACCGGTTTTCCCGGTAATCCGTATTTGTT (site TGTGGAACTAA) | 0.00382
9 | GGTGTGCCATGGACCGGTTTTCCCGGTAATCCGTATTTGAC (site GGTGTGCCTGT) | 0
10 | GGTTACTCATGGACCGGTTTTCCCGGTAATCCGTATTTGGA (site GGTTACTCTTC) | 1.18
11 | GGTTAGACATGGACCGGTTTTCCCGGTAATCCGTATTTGAG (site AGTTAGACTCT) | 0.498
12 | GGTTAGACATGGACCGGTTTTCCCGGTAATCCGTATTTGAG (site CGTTAGACTCT) | 0.202
13 | GGTTAGACATGGACCGGTTTTCCCGGTAATCCGTATTTGAG (site GGTTAGACTCT) | 1.12
14 | GGTTAGACATGGACCGGTTTTCCCGGTAATCCGTATTTGAG (site TGTTAGACTCT) | 0.194
15 | GGTTGGACATGGACCGGTTTTCCCGGTAATCCGTATTTGAC (site GATTGGACTGT) | 0
16 | GGTTGGACATGGACCGGTTTTCCCGGTAATCCGTATTTGAC (site GCTTGGACTGT) | 0
17 | GGTTGGACATGGACCGGTTTTCCCGGTAATCCGTATTTGAC (site GGTTGGACTGT) | 1.49
18 | GGTTGGACATGGACCGGTTTTCCCGGTAATCCGTATTTGAC (site GTTTGGACTGT) | 0
19 | GGTTTATCATGGACCGGTTTTCCCGGTAATCCGTATTTGAC (site GGTTTATCTGT) | 0.699
20 | GTAAACCCATGGACCGGTTTTCCCGGTAATCCGTATTTGAT (site GTAAACCCTAT) | 1.45
21 | GTAAGATCATGGACCGGTTTTCCCGGTAATCCGTATTTGGC (site GTAAGATCTGC) | 2.74
22 | GTAAGCACATGGACCGGTTTTCCCGGTAATCCGTATTTGTA (site GTAAGCACTTA) | 2.03
23 | GTAAGCACATGGACCGGTTTTCCCGGTAATCCGTATTTGTA (site GTACGCACTTA) | 0.0491
24 | GTAAGCACATGGACCGGTTTTCCCGGTAATCCGTATTTGTA (site GTAGGCACTTA) | 0.614
25 | GTAAGCACATGGACCGGTTTTCCCGGTAATCCGTATTTGTA (site GTATGCACTTA) | 0.495

Row | Sequence | recombinant UMI read abundance (log10)
26 | GTAAGGCCATGGACCGGTTTTCCCGGTAATCCGTATTTGAC (site ATAAGGCCTGT) | 0
27 | GTAAGGCCATGGACCGGTTTTCCCGGTAATCCGTATTTGAC (site CTAAGGCCTGT) | 0
28 | GTAAGGCCATGGACCGGTTTTCCCGGTAATCCGTATTTGAC (site GTAAGGCCTGT) | 0
29 | GTAAGGCCATGGACCGGTTTTCCCGGTAATCCGTATTTGAC (site TTAAGGCCTGT) | 0
30 | GTAATCTCATGGACCGGTTTTCCCGGTAATCCGTATTTGAC (site GTAATCTCTGT) | 2.51
31 | GTAATTGCATGGACCGGTTTTCCCGGTAATCCGTATTTGTA (site GTAATTGCTTA) | 2.57
32 | GTACAGTCATGGACCGGTTTTCCCGGTAATCCGTATTTGAT (site GTACAGTCTAT) | 2.73
33 | GTACGAGCATGGACCGGTTTTCCCGGTAATCCGTATTTGTG (site GTACGAGCTCA) | 1.39
34 | GTACTATCATGGACCGGTTTTCCCGGTAATCCGTATTTGGC (site GTACTATCTGC) | 3.19
35 | GTACTTCCATGGACCGGTTTTCCCGGTAATCCGTATTTGTC (site GTACTTCCTGA) | 1.93
36 | GTAGAACCATGGACCGGTTTTCCCGGTAATCCGTATTTGCA (site GTAGAACCTTG) | 0
37 | GTAGAGGCATGGACCGGTTTTCCCGGTAATCCGTATTTGTG (site GTAGAGGCTCA) | 1.58
38 | GTAGAGGCATGGACCGGTTTTCCCGGTAATCCGTATTTGTG (site GTCGAGGCTCA) | 0.361
39 | GTAGAGGCATGGACCGGTTTTCCCGGTAATCCGTATTTGTG (site GTGGAGGCTCA) | 0.704
40 | GTAGAGGCATGGACCGGTTTTCCCGGTAATCCGTATTTGTG (site GTTGAGGCTCA) | 0.247
41 | GTAGCAACATGGACCGGTTTTCCCGGTAATCCGTATTTGTA (site GTAGCAACTTA) | 2.18
42 | GTAGGCTCATGGACCGGTTTTCCCGGTAATCCGTATTTGTG (site GTAGGCTCTCA) | 1.4
43 | GTAGGGGCATGGACCGGTTTTCCCGGTAATCCGTATTTGAA (site GTAGGGGCTTT) | 1.18
44 | GTAGTCCCATGGACCGGTTTTCCCGGTAATCCGTATTTGCG (site GTAGTCACTCG) | 0.251
45 | GTAGTCCCATGGACCGGTTTTCCCGGTAATCCGTATTTGCG (site GTAGTCCCTCG) | 0.791
46 | GTAGTCCCATGGACCGGTTTTCCCGGTAATCCGTATTTGCG (site GTAGTCGCTCG) | 0.16
47 | GTAGTCCCATGGACCGGTTTTCCCGGTAATCCGTATTTGCG (site GTAGTCTCTCG) | 2.33
48 | GTAGTCCCATGGACCGGTTTTCCCGGTAATCCGTATTTGGT (site GTAGTCCCTAC) | 0.588
49 | GTAGTCGCATGGACCGGTTTTCCCGGTAATCCGTATTTGCT (site GTAGTCGCTAG) | 2.87
50 | GTAGTCGCATGGACCGGTTTTCCCGGTAATCCGTATTTGCT (site GTAGTCGCTCG) | 1.77

Row | Sequence | recombinant UMI read abundance (log10)
51 | GTAGTCGCATGGACCGGTTTTCCCGGTAATCCGTATTTGCT (site GTAGTCGCTGG) | 2.09
52 | GTAGTCGCATGGACCGGTTTTCCCGGTAATCCGTATTTGCT (site GTAGTCGCTTG) | 1.57
53 | GTAGTCGCATGGACCGGTTTTCCCGGTAATCCGTATTTGGG (site GTAGTCGCTCA) | 0.214
54 | GTAGTCGCATGGACCGGTTTTCCCGGTAATCCGTATTTGGG (site GTAGTCGCTCC) | 0.132
55 | GTAGTCGCATGGACCGGTTTTCCCGGTAATCCGTATTTGGG (site GTAGTCGCTCG) | 0.0493
56 | GTAGTCGCATGGACCGGTTTTCCCGGTAATCCGTATTTGGG (site GTAGTCGCTCT) | 0.661
57 | GTAGTTACATGGACCGGTTTTCCCGGTAATCCGTATTTGAC (site GTAGATACTGT) | 2.18
58 | GTAGTTACATGGACCGGTTTTCCCGGTAATCCGTATTTGAC (site GTAGCTACTGT) | 1.23
59 | GTAGTTACATGGACCGGTTTTCCCGGTAATCCGTATTTGAC (site GTAGGTACTGT) | 0.575
60 | GTAGTTACATGGACCGGTTTTCCCGGTAATCCGTATTTGAC (site GTAGTTACTGT) | 2.74
61 | GTAGTTCCATGGACCGGTTTTCCCGGTAATCCGTATTTGGT (site GTAGTTCCTAC) | 0.849
62 | GTAGTTCCATGGACCGGTTTTCCCGGTAATCCGTATTTGGT (site GTCGTTCCTAC) | 0
63 | GTAGTTCCATGGACCGGTTTTCCCGGTAATCCGTATTTGGT (site GTGGTTCCTAC) | 0.00522
64 | GTAGTTCCATGGACCGGTTTTCCCGGTAATCCGTATTTGGT (site GTTGTTCCTAC) | 0.00774
65 | GTATCAGCATGGACCGGTTTTCCCGGTAATCCGTATTTGTC (site GTATCAGCTGA) | 3.03
66 | GTATCTACATGGACCGGTTTTCCCGGTAATCCGTATTTGCT (site GTATCTACTAG) | 1.66
67 | GTATCTCCATGGACCGGTTTTCCCGGTAATCCGTATTTGTA (site GTATCTCCTTA) | 0.705
68 | GTATGCACATGGACCGGTTTTCCCGGTAATCCGTATTTGTC (site GTATGCACTAA) | 0.663
69 | GTATGCACATGGACCGGTTTTCCCGGTAATCCGTATTTGTC (site GTATGCACTCA) | 0.0163
70 | GTATGCACATGGACCGGTTTTCCCGGTAATCCGTATTTGTC (site GTATGCACTGA) | 3.13
71 | GTATGCACATGGACCGGTTTTCCCGGTAATCCGTATTTGTC (site GTATGCACTTA) | 1.33
72 | GTATGCACATGGACCGGTTTTCCCGGTAATCCGTATTTGTT (site GTATGCACTAA) | 1.32
73 | GTATGCACATGGACCGGTTTTCCCGGTAATCCGTATTTGTT (site GTATGCACTCA) | 0.25
74 | GTATGCACATGGACCGGTTTTCCCGGTAATCCGTATTTGTT (site GTATGCACTGA) | 1.66
75 | GTATGCACATGGACCGGTTTTCCCGGTAATCCGTATTTGTT (site GTATGCACTTA) | 0.606
